One experiment addresses T1, human POP (Homo sapiens, UniProt P48147).
T1 construct: The full-length cDNA was cloned into the BamHI and EcoRI cloning sites of the commercially available expression plasmid pGEX-6P1; GST (from pGEX-6P1) (N, cleaved yes); made in house; host or cells: E. coli BL21
T1 sequence (P48147 1-710): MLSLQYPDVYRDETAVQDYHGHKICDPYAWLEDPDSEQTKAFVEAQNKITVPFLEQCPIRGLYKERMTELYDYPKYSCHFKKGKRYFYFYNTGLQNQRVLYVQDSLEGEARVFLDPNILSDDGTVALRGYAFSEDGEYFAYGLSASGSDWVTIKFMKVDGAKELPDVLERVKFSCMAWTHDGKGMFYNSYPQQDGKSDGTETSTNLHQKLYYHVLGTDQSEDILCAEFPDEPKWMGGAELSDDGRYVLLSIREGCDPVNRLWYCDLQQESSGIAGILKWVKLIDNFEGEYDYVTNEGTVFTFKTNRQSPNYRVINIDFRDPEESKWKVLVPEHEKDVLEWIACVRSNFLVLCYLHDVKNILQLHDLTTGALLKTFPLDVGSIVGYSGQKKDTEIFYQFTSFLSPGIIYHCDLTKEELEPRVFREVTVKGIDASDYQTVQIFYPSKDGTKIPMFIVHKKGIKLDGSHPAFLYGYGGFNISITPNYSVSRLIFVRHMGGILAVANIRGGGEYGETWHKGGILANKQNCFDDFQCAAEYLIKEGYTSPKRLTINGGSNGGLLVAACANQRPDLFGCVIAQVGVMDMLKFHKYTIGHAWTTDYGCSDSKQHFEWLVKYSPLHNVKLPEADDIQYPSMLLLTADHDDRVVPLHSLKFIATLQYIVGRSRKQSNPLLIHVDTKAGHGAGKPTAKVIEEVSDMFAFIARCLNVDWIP
The experiment is described as follows: Prolyl oligopeptidase (POP) inhibition assay (fluorescence, Z-Gly-Pro-AMC). The experiment is classed as biochemical. The settings on record: synthetic bevuTI-I; recombinant human POP 50 ng, Z-Gly-Pro-AMC 45 μM, 20 mM HEPES pH 7.4, 150 mM NaCl, 1 mM EDTA, 0.5 mM DTT, ex 360/em 450 nm; mean ± SD of three biological replicates. The text has this:
As it was previously reported, plant cystine knot peptides belonging to the cyclotide family have the ability to inhibit human prolyl endopeptidase.[33] Thus, we were interested whether the bevuTI-I was also able to inhibit this enzyme. Like psysol-2, bevuTI-I has three proline residues and presumably the same cysteine connectivity.
Recombinant human POP (NM_002726.4) was produced in E. coli BL21 (New England Biolabs, MA, USA). The full-length cDNA was cloned into the BamHI and EcoRI cloning sites of the commercially available expression plasmid pGEX-6P1 by a customized manufacturer service from GenScript (Leiden, The Netherlands). […] The protein concentration of the eluate was determined by the bicinchoninic acid assay (ThermoFisher Scientific), and aliquots of stock protease in storage buffer (including 20% glycerol) were kept at −80 °C. […] Enzyme activity was measured by fluorescence signal as a result of free fluorophore from the Z-Gly-Pro-AMC substrate with an excitation of 360 ± 20 nm and emission of 450 ± 20 nm. Kinetic inhibition data were recorded in 5 min intervals, and the amount of inhibition was calculated from the steepness of the linear initial velocity. […] Concentration–response experiments were evaluated with a fitted nonlinear regression function in GraphPad Prism.

Another experiment addresses T2, Bovine β-trypsin (Bos taurus, UniProt P00760).
T2 sequence (P00760 24-246): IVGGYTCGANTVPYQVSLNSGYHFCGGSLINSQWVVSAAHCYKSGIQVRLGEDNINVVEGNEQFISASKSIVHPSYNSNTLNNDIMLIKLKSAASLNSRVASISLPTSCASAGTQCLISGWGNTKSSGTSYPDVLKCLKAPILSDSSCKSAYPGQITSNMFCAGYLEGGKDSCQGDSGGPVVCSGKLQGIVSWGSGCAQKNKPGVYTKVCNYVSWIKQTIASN
Description: Trypsin inhibition assay (colorimetric, benzoylarginine-4-nitroanilide). Type of experiment: biochemical. The protocol: Based on the classification of bevuTI-I as putative trypsin inhibitor of the M. jalapa trypsin inhibitor family, enzymatic inhibition assays were performed.[33] Bovine β-trypsin and bevuTI-I were used in a colorimetric trypsin inhibition assay to measure concentration-dependent inhibition.
The trypsin inhibition assay was performed in 96-well microtiter plates. To 140 μL of a 20 mM Tris-HCl buffer (pH 8.0) was added 20 μL of inhibitor (dissolved in buffer)/buffer (negative control). Afterward, 20 μL of bovine trypsin (0.125 mg/mL, Sigma-Aldrich) was added, and the plate was incubated for 10 min at 22 °C. A volume of 20 μL of benzoylarginine-4-nitroanilide hydroxychloride (Bachem, Bubendorf, Switzerland) dissolved in 20% DMSO at a concentration of 900 μM was added automatically with the dispenser of the Synergy H4 Hybrid reader (BioTek, VM, USA). The rate of enzymatic reaction with different concentrations of inhibitor was measured for 1 h every 5 min at a wavelength of 410 nm. For calculations, the linear portion of data, corresponding to the initial rate of reaction, was used. The highest rate was set to 100% activity. A nonlinear regression (log inhibitor vs normalized response) was performed with GraphPad Prism version 8.0.0 for Windows (GraphPad Software, CA, USA). The top and bottom parameters were set to 100% and 0%, respectively.

Consider 2 molecules from article PMC7705960, “Discovery of a Beetroot Protease Inhibitor to Identify and Classify Plant-Derived Cystine Knot Peptides” (Journal of Natural Products, 2020).

Several values for one entry are separate records, joined by “and”; a condition that tells them apart may be missing. Equal entries are not always repeated. Where two headings read alike, the source gives them in different places. Positions of bridges follow the written chain, without caps; N, C: chain ends. Residues, ends and D or L forms follow the SMILES beside them.

For `CC[C@H](C)[C@@H]1NC(=O)[C@H](CCCNC(=N)N)NC(=O)[C@H](CC(C)C)NC(=O)[C@H](Cc2c[nH]c3ccccc23)NC(=O)[C@H](CCC(N)=O)NC(=O)[C@H](Cc2c[nH]cn2)NC(=O)[C@@H]2CCCN2C(=O)[C@H](C(C)C)NC(=O)[C@@H]2CSSC[C@@H]3NC(=O)[C@H]([C@@H](C)CC)NC(=O)[C@H]([C@@H](C)O)NC(=O)CNC(=O)[C@H](CO)NC(=O)[C@@H]4CCCN4C(=O)[C@H]([C@@H](C)O)NC(=O)[C@@H](N)CSSC[C@H](NC(=O)[C@H](CSSC[C@@H](C(=O)N[C@@H](C)C(=O)O)NC(=O)[C@H](C(C)C)NC(=O)[C@H](Cc4ccccc4)NC1=O)NC(=O)[C@H](CCC(N)=O)NC(=O)[C@H](CCC(=O)O)NC(=O)[C@@H]1CCCN1C(=O)[C@H](C)NC(=O)[C@H](CCC(=O)O)NC(=O)[C@@H]1CCCN1C(=O)[C@H](CO)NC3=O)C(=O)N[C@@H](CO)C(=O)N[C@@H](CC(N)=O)C(=O)N[C@@H](CO)C(=O)N2` [bevuTI-I, Beta vulgaris trypsin inhibitor I] (H-CTPSGTICSPEAPEQCCSNSCVPHQWLRIFVCA-OH; disulfide 1-17, 8-21, 16-32), the IC50 at human POP is 11000 ± 5300 nM; at Bovine β-trypsin it was 471 nM and 568 nM.

B1: Kunitz-type soybean trypsin inhibitor: well-characterized Kunitz-type soybean trypsin inhibitor, used as control (protein, UniProt P01070 25-205, looked up)
Trypsin inhibitor A: DFVLDNEGNPLENGGTYYILSDITAFGGIRAAPTGNERCPLTVVQSRNELDKGIGTIISSPYRIRFIAEGHPLSLKFDSFAVIMLCVGIPTEWSVVEDLPEGPAVKIGENKDAMDGWFRLERVSDDEFNNYKLVFCPQQAEDDKCGDIGISIDHDDGTRRLVVSKNKPLVVQFQKLDKESL
Take B1: in the experiment with Bovine β-trypsin (control inhibitor (Glycine max Kunitz-type), bovine trypsin, 20 mM Tris-HCl pH 8.0, 10 min pre-incubation at 22 °C, 410 nm, read-out: IC50, trypsin inhibition), the IC50 is 198 ± 72 nM.

The term IC50 denotes the concentration that inhibits the measured activity by half.
